The values below come from patent US20250136552A1, “ANTAGONISTS OF CAV 2.3” (LARIO THERAPEUTICS LIMITED, priority 2021, published 2025).

In this test the target is Cav2.3 (Homo sapiens, UniProt Q15878). Kind of test: Human Cav2.3 channel calcium-influx assay. The class given is cell-based. As to conditions: HEK-293 T-Rex/Kir2.1 cells with inducible Cav2.3e-β4-α2δ1; Fluo8 fluorescence; 8-point dose response from 30 μM; no pluronic acid; read-out: Cav2.3 (pIC50) (converted). As for the experimental part: HEK-293 T-Rex cells were transfected with pcDNA3.1-Kir2.1 to generate a stable cell line. After antibiotic selection, the obtained stable pools were analysed using FLIPR^TETRA(membrane potential assay), and a limiting dilution was performed and a HEK-293 T-Rex/Kir2.1 clone was selected. The clone was transfected with pcDNA3.1-Cav2.3e and pBud-Cav-β4-α2δ1 to generate a stable cell line where the Cav2.3e expression is inducible. After antibiotic selection, functional clone pool analysis and two successive limiting dilutions, the final clone underwent a qPCR analysis and a biophysical and pharmacological validation using patch-clamp.
Chain of Cav2.3 (Q15878 1-2270 isoform Q15878-3): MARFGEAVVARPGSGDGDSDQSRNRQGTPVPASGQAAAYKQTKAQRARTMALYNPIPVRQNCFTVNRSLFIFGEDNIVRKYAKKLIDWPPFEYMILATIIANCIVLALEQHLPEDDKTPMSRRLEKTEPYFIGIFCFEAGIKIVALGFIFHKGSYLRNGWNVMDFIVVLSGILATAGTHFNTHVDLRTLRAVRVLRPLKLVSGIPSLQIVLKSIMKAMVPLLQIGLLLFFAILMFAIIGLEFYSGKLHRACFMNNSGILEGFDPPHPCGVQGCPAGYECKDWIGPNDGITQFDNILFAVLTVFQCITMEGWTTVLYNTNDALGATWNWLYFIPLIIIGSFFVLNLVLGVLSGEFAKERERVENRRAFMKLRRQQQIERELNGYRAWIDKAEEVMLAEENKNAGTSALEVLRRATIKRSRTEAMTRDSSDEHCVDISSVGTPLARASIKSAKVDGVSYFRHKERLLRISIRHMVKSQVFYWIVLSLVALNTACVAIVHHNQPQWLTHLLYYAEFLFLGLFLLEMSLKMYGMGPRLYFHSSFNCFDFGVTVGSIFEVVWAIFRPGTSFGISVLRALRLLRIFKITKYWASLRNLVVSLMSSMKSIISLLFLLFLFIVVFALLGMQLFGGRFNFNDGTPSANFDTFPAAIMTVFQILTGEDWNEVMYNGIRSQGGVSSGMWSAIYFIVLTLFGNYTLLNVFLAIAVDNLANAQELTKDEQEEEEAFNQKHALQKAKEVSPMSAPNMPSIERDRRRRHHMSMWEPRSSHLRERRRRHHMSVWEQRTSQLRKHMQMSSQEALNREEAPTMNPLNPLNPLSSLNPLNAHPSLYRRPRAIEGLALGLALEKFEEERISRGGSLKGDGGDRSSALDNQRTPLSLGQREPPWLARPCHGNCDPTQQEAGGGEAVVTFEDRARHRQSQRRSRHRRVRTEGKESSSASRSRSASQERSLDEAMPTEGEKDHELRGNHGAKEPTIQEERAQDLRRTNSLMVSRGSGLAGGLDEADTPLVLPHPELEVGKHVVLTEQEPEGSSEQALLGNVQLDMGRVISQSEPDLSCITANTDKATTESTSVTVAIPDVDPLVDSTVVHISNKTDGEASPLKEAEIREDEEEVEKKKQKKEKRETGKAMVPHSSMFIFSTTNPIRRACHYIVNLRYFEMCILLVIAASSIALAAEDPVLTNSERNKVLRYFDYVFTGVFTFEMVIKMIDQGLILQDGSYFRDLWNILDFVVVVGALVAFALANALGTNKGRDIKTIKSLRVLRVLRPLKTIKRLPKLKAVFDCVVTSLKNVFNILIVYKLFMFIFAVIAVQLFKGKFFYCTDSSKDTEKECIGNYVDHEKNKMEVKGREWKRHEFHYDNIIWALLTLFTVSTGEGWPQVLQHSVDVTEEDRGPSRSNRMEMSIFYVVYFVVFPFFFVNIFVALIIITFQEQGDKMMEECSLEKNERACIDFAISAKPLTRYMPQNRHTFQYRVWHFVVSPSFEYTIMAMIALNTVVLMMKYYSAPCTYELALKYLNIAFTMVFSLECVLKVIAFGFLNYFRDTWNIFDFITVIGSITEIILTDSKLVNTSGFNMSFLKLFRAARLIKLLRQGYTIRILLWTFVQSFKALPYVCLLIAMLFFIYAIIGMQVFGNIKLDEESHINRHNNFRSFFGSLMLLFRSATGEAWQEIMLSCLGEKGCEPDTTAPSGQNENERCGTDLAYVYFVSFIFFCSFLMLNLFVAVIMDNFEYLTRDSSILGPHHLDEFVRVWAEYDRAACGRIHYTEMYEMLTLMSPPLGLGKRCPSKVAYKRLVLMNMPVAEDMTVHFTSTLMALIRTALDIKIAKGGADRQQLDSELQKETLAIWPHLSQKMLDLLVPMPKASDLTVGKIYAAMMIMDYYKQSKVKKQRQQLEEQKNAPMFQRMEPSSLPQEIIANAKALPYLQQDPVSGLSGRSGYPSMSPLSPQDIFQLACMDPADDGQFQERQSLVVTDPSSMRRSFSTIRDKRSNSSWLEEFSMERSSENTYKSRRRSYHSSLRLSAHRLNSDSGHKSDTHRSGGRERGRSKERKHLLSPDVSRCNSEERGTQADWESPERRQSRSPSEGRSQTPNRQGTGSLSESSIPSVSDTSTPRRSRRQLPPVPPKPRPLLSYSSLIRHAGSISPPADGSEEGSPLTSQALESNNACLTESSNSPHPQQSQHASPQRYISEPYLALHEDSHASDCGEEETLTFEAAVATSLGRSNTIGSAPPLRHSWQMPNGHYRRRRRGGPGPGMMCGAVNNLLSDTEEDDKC
A compound plate, containing 10 test compounds in eight-points dose response with n=4, was prepared. Test compounds dose response curves were prepared in automated fashion in 100% DMSO at CyBio Felix and starting from a stock solution in 100% DMSO; a defined volume was serially moved into destination wells pre-filled with the desired DMSO volume; stock solution concentration volumes were dependent on the final compounds concentrations to be tested and the final DMSO content used in the assay. For the assay test compounds dose response curves ranged from 30 μM and half log dilution with 0.3% final DMSO. In order to obtain the 8-points dose response curve all the concentrations were created by starting from a 10 mM DMSO stock solution and then moving 9.5 μL into a destination well pre-filled with 20.5 μL of 100% DMSO and repeating this step seven times. This initial step was done into 96 MTP plates, 10 compounds/plate. One 384 MTP was then reformatted to contain all the 10 compounds at 8 concentrations, quadruplicate data points. This so obtained 384 MTP compound plate served as source plate in a “mother to child” process with a CyBi®-Well dispenser in which 0.7 μL of compounds were moved into a destination plate pre-filled with 57.6 μL of Tyrode's buffer 0 mM K^+, thus obtaining 4× concentrated compounds solution. In columns 1-2 and 23-24 the control wells were added. Both “source” compound plate and “destination” compound plate were barcoded and a relationship between the two plates was thus generated.
The day before the experiment, cells were detached by gentle wash with DPBS, followed by 5 min incubation at 37° C. with Trypsin solution. Detached cells were diluted with OptiMEM+Doxycycline at 0.2 μg/mL, counted and plated in Poly-D-Lysine coated black/clear bottom (15.000 c/well in 20 μl/well) by the use of a MATRIX WellMate dispenser. Plates were placed into a humidified incubator at 37° C. with 5% CO2 until the experimental day. 24 h after seeding 10 μL/well of 1.5× Fluo8 NW dye solution prepared in Tyrode's buffer 0 mM K^+ were added on top of the seeding medium. Cell plates were incubated for 40-60 min at RT in the dark. We then Injected off-line 10 μL/well of test compounds and controls 4× concentrated in Tyrode's Buffer 0 mM K+ with the CyBi®-Well instrument. Cell plates were incubated 3 minutes at RT. Finally, we injected 20 μL/well of 3× concentrated activator solution (K20-Na130-Ca2 buffer: 20 mM KCl, 130 mM NaCl, 2 mM CaCl2, 10 mM HEPES, 10 mM Glucose, final concentrations, prepared starting from “K0-Na150-Ca2” and “K150-Na0-Ca2” buffers) at FDSS7000EX instrument and read emitted fluorescence for 130 seconds.
Data analysis was performed with Genedata Screener® software and reported compounds activity as % effect in relation to the normalization standards. The Kinetic Response Value (KRV) is calculated as follows:
KRV=Maximal fluorescence recorded from second 5 to second 130 minus baseline fluorescence, computed as average from second 1 to second 2, of the kinetic trace. The KRV was normalized versus Neutral Controls and Inhibitor Controls in order to obtain the Activity[%] for each well. […] Therefore, the compound activity values were scaled (based on the two references) to a common range (two-point normalization). […]

As to `CCN([C@@H](C)c1ccc(F)cc1)S(=O)(=O)c1ccc2c(c1)CN(C(=O)C(C)(C)F)CC2` [Example 19, (S)-N-ethyl-2-(2-fluoro-2-methylpropanoyl)-N-(1-(4-fluorophenyl)ethyl)-1,2,3,4-tetrahydroisoquinoline-7-sulfonamide], the IC50 is 0.575 µM.

As for `CCN([C@@H](C)c1ccc(C(F)(F)F)cc1)S(=O)(=O)c1ccc2c(c1)CCN(C(=O)C1CC1)C2` [Example 21, (S)-2-(cyclopropanecarbonyl)-N-ethyl-N-(1-(4-(trifluoromethyl)phenyl)ethyl)-1,2,3,4-tetrahydroisoquinoline-6-sulfonamide], the IC50 is 3.98 µM.

As for `CCN([C@@H](C)c1ccc(F)cc1)S(=O)(=O)c1cc(F)c2c(c1)CCN(C(=O)C1CC1)C2` [Example 22, (S)-2-(cyclopropanecarbonyl)-N-ethyl-8-fluoro-N-(1-(4-fluorophenyl)ethyl)-1,2,3,4-tetrahydroisoquinoline-6-sulfonamide], the IC50 was 0.955 µM.

In the case of `CCN([C@@H](C)c1ccc(F)cc1)S(=O)(=O)c1ccc2c(c1)C(C)(C)CN(C(=O)C1CC1)C2` [Example 23, (S)-2-(cyclopropanecarbonyl)-N-ethyl-N-(1-(4-fluorophenyl)ethyl)-4,4-dimethyl-1,2,3,4-tetrahydroisoquinoline-6-sulfonamide], the IC50 was 2.14 µM.

Take `CCN([C@@H](C)c1ccc(F)cc1)S(=O)(=O)c1ccc2c(c1)CCN(C(=O)C(C)C)C2` [Example 24, (S)-N-ethyl-N-(1-(4-fluorophenyl)ethyl)-2-isobutyryl-1,2,3,4-tetrahydroisoquinoline-6-sulfonamide]: the IC50 is 1.74 µM.

As for `CCN([C@@H](C)c1ccccc1)S(=O)(=O)c1ccc2c(c1)CCN(C(=O)C(C)C)C2` [Example 25, (S)-N-ethyl-2-isobutyryl-N-(1-phenylethyl)-1,2,3,4-tetrahydroisoquinoline-6-sulfonamide], the IC50 is 1.45 µM.

As for `CCN([C@H](C)c1ccccc1)S(=O)(=O)c1ccc2c(c1)CCN(C(=O)C(C)C)C2` [Example 26, (R)-N-ethyl-2-isobutyryl-N-(1-phenylethyl)-1,2,3,4-tetrahydroisoquinoline-6-sulfonamide], the IC50 is 4.17 µM.

For `CCN([C@H](C)c1ccccc1)S(=O)(=O)c1ccc2c(c1)CCN(C(=O)C1CC1)C2` [Example 27, (R)-2-(cyclopropanecarbonyl)-N-ethyl-N-(1-phenylethyl)-1,2,3,4-tetrahydroisoquinoline-6-sulfonamide], the IC50 was 3.63 µM.

Take `CCN(C1(c2ccc(F)cc2)COC1)S(=O)(=O)c1ccc2c(c1)CN(C(=O)C(C)C)CC2` [Example 28, N-ethyl-N-(3-(4-fluorophenyl)oxetan-3-yl)-2-isobutyryl-1,2,3,4-tetrahydroisoquinoline-7-sulfonamide]: the IC50 was 3.8 µM.

Take `CC(C)C(=O)N1CCc2ccc(S(=O)(=O)N(C)C3(c4ccc(F)cc4)COC3)cc2C1` [Example 29, N-(3-(4-fluorophenyl)oxetan-3-yl)-2-isobutyryl-N-methyl-1,2,3,4-tetrahydroisoquinoline-7-sulfonamide]: the IC50 is 7.08 µM.

Turning to `CCN(C1(c2ccc(F)cc2)COC1)S(=O)(=O)c1ccc2c(c1)CCN(C(=O)C(C)C)C2` [Example 30, N-ethyl-N-(3-(4-fluorophenyl)oxetan-3-yl)-2-isobutyryl-1,2,3,4-tetrahydroisoquinoline-6-sulfonamide], the IC50 was 6.76 µM.

Turning to `CC(C)C(=O)N1CCc2cc(S(=O)(=O)N(C)C3(c4ccc(F)cc4)COC3)ccc2C1` [Example 31, N-(3-(4-fluorophenyl)oxetan-3-yl)-2-isobutyryl-N-methyl-1,2,3,4-tetrahydroisoquinoline-6-sulfonamide], the IC50 is 9.12 µM.

For `CCN([C@@H](C)c1ccc(F)cc1)S(=O)(=O)c1cnc2c(c1)CCN(C(=O)C1CC1)C2` [Example 32, (S)-7-(cyclopropanecarbonyl)-N-ethyl-N-(1-(4-fluorophenyl)ethyl)-5,6,7,8-tetrahydro-1,7-naphthyridine-3-sulfonamide], the IC50 was 2.29 µM.

Regarding `CCN([C@@H](C)c1ccc(F)cc1)S(=O)(=O)c1ccc2c(n1)CCN(C(=O)C1CC1)C2` [Example 33, (S)-6-(cyclopropanecarbonyl)-N-ethyl-N-(1-(4-fluorophenyl)ethyl)-5,6,7,8-tetrahydro-1,6-naphthyridine-2-sulfonamide], the IC50 was 3.63 µM.

Take `CCN([C@@H](C)c1ccc(F)cc1)S(=O)(=O)c1cc2c(cn1)CN(C(=O)C1CC1)CC2` [Example 34, (S)-7-(cyclopropanecarbonyl)-N-ethyl-N-(1-(4-fluorophenyl)ethyl)-5,6,7,8-tetrahydro-2,7-naphthyridine-3-sulfonamide]: the IC50 is 3.02 µM.

As for `CC(C)C(=O)N1CCCc2cc(S(=O)(=O)N(C)[C@@H](C)c3ccccc3)ccc2C1` [Example 35, (S)-2-Isobutyryl-N-methyl-N-(1-phenylethyl)-2,3,4,5-tetrahydro-1H-benzo[c]azepine-7-sulfonamide], the IC50 is 3.16 µM.

Turning to `CC(C)C(=O)N1CCc2ccc(S(=O)(=O)N(C)[C@@H](C)c3ccccc3)cc2CC1` [Example 36, (S)-3-isobutyryl-N-methyl-N-(1-phenylethyl)-2,3,4,5-tetrahydro-1H-benzo[d]azepine-7-sulfonamide], the IC50 was 1.95 µM.

Take `CC(C)N1CCc2cc(S(=O)(=O)N(C)[C@@H](C)c3ccccc3)ccc2C1=O` [Example 37, (S)-2-isopropyl-N-methyl-1-oxo-N-(1-phenylethyl)-1,2,3,4-tetrahydroisoquinoline-6-sulfonamide]: the IC50 is 6.46 µM.

As to `C[C@@H](c1ccccc1)N(C)S(=O)(=O)c1ccc2c(c1)CCN(C)C2=O` [Example 38, (S)-N,2-dimethyl-1-oxo-N-(1-phenylethyl)-1,2,3,4-tetrahydroisoquinoline-6-sulfonamide], the IC50 is 6.61 µM.

In the case of `CC(C)N1Cc2ccc(S(=O)(=O)N(C)[C@@H](C)c3ccccc3)cc2CC1=O` [Example 39, (S)-2-isopropyl-N-methyl-3-oxo-N-(1-phenylethyl)-1,2,3,4-tetrahydroisoquinoline-6-sulfonamide], the IC50 was 11.7 µM.

For `CC(C)C(=O)N1Cc2ccc(S(=O)(=O)N(C)[C@@H](C)c3ccccc3)cc2C1` [Example 40, (S)-2-isobutyryl-N-methyl-N-(1-phenylethyl)isoindoline-5-sulfonamide], the IC50 was 2.88 µM.

As to `CCN([C@H](c1ccc(F)cc1)C(F)(F)F)S(=O)(=O)c1ccc2c(c1)CN(C(=O)C(C)(C)F)CC2` [Example 41, (R)-N-ethyl-2-(2-fluoro-2-methylpropanoyl)-N-(2,2,2-trifluoro-1-(4-fluorophenyl)ethyl)-1,2,3,4-tetrahydroisoquinoline-7-sulfonamide], the IC50 is 0.891 µM.

Consider `CCN([C@@H](c1ccc(F)cc1)C(F)(F)F)S(=O)(=O)c1ccc2c(c1)CN(C(=O)C(C)(C)F)CC2` [Example 42, (S)-N-ethyl-2-(2-fluoro-2-methylpropanoyl)-N-(2,2,2-trifluoro-1-(4-fluorophenyl)ethyl)-1,2,3,4-tetrahydroisoquinoline-7-sulfonamide], for which the IC50 is 2.63 µM.

Take `CCN(C(c1ccc(F)cc1)C(F)(F)F)S(=O)(=O)c1ccc2c(c1)CN(C(=O)C1CCOCC1)CC2` (stereo not drawn) [Example 43, N-ethyl-2-(tetrahydro-2H-pyran-4-carbonyl)-N-(2,2,2-trifluoro-1-(4-fluorophenyl)ethyl)-1,2,3,4-tetrahydroisoquinoline-7-sulfonamide]: the IC50 was 0.589 µM.
